Patent publication US8802597B2, “Herbicidal pyrimidines” (E I du Pont de Nemours and Company, priority 2003, dated 2014)

Experiments:
Test in all cases: Test G pre/postemergence
Assay type in all cases: in vivo
[1] = test system: broadleaf signalgrass (Brachiaria platyphylla)
Text: (§1) Seeds or nutlets of plant species selected from bermudagrass (Cynodon dactylon), Surinam grass (Brachiaria decumbens), large crabgrass (Digitaria sanguinalis), green foxtail (Setaria viridis), goosegrass (Eleusine indica), johnsongrass (Sorghum halepense), kochia (Kochia scoparia), pitted morningglory (Ipomoea lacunosa), purple nutsedge (Cyperus rotundus), common ragweed (Ambrosia elatior), black mustard (Brassica nigra), guineagrass (Panicum maximum), dallisgrass (Paspalum dilatatum), barnyardgrass (Echinochloa crus-galli), southern sandbur (Cenchrus echinatus), common sowthistle (Sonchus oleraceous), prickly sida (Sida spinosa), Italian ryegrass (Lolium multiflorum), common purslane (Portulaca oleracea), broadleaf signalgrass (Brachiaria platyphylla), common groundsel (Senecio vulgaris), common chickweed (Stellaria media), tropical spiderwort (Commelina benghalensis), annual bluegrass (Poa annua), downy bromegrass (Bromus tectorum), itchgrass (Rottboellia cochinchinensis), quackgrass (Elytrigia repens), Canada horseweed (Conyza canadensis), field bindweed (Convolvulus arvensis), spanishneedles (Bidens bipinnata), common mallow (Malva sylvestris), and Russian thistle (Salsola kali) were planted and treated preemergence with test chemicals formulated in a non-phytotoxic solvent mixture which included a surfactant.
(§2) At the same time, plants selected from these weed species were treated with postemergence applications of some of the test chemicals formulated in the same manner. Plants ranged in height from 2 to 18 cm (1- to 4-leaf stage) for postemergence treatments. Treated plants and controls were maintained in a greenhouse for 12 to 21 days, after which time all species were compared to controls and visually evaluated.
(§3) Plant response ratings, summarized in Table G, are based on a scale of 0 to 100 where 0 is no effect and 100 is complete control. A dash (-) response means no test result.

[2] = test system: downy bromegrass (Bromus tectorum)
Text: as §1, §2, §3

[3] = test system: common ragweed (Ambrosia elatior)
Text: as §1, §2, §3

[4] = test system: field bindweed (Convolvulus arvensis)
Text: as §1, §2, §3

[5] = test system: prickly sida (Sida spinosa)
Text: as §1, §2, §3

[6] = test system: barnyardgrass (Echinochloa crus-galli)
Text: as §1, §2, §3

[7] = test system: large crabgrass (Digitaria sanguinalis)
Text: as §1, §2, §3

[8] = test system: guineagrass (Panicum maximum)
Text: as §1, §2, §3

[9] = test system: tropical spiderwort (Commelina benghalensis)
Text: as §1, §2, §3

[10] = test system: goosegrass (Eleusine indica)
Text: as §1, §2, §3

[11] = Postemergence, 250 g ai/ha, scale 0 to 100
[12] = Postemergence, 500 g ai/ha, scale 0 to 100
[13] = Postemergence, 62 g ai/ha, scale 0 to 100
[14] = Postemergence, 125 g ai/ha, scale 0 to 100
[15] = Postemergence, 375 g ai/ha, scale 0 to 100
[16] = Preemergence, 62 g ai/ha, scale 0-100
[17] = Preemergence, 125 g ai/ha, scale 0-100
[18] = Preemergence, 250 g ai/ha, scale 0-100
[19] = Preemergence, 500 g ai/ha, scale 0-100
[20] = Preemergence, 500 g ai/ha, scale 0 to 100
[21] = Preemergence, 375 g ai/ha, scale 0 to 100

Structure (SMILES): CCOC(=O)c1nc(C2CC2)nc(N)c1Br [Compound 1, ethyl 6-amino-5-bromo-2-cyclopropyl-4-pyrimidinecarboxylate]
- Plant response rating, Signalgrass [1, 11]: 75
- Plant response rating, Signalgrass [1, 12]: 85
- Plant response rating, Signalgrass [1, 13]: 20
- Plant response rating, Signalgrass [1, 14]: 60
- Plant response rating, Signalgrass [1, 15]: 75
- Plant response rating, Signalgrass [1, 16]: 10
- Plant response rating, Signalgrass [1, 17]: 70
- Plant response rating, Signalgrass [1, 18]: 75
- Plant response rating, Signalgrass [1, 19]: 75
- Plant response rating, Signalgrass [1, 20]: 95
- Plant response rating, Bromegrass, Downy [2, 11]: 60
- Plant response rating, Bromegrass, Downy [2, 12]: 80
- Plant response rating, Bromegrass, Downy [2, 13]: 30
- Plant response rating, Bromegrass, Downy [2, 14]: 30
- Plant response rating, Bromegrass, Downy [2, 15]: 70
- Plant response rating, Bromegrass, Downy [2, 16]: 0
- Plant response rating, Bromegrass, Downy [2, 17]: 20
- Plant response rating, Bromegrass, Downy [2, 18]: 95
- Plant response rating, Bromegrass, Downy [2, 20]: 95
- Plant response rating, Bromegrass, Downy [2, 21]: 95
- Plant response rating, Ragweed [3, 11]: 95
- Plant response rating, Ragweed [3, 12]: 100
- Plant response rating, Ragweed [3, 13]: 75
- Plant response rating, Ragweed [3, 14]: 95
- Plant response rating, Ragweed [3, 15]: 100
- Plant response rating, Ragweed [3, 16]: 50
- Plant response rating, Ragweed [3, 17]: 95
- Plant response rating, Ragweed [3, 18]: 100
- Plant response rating, Ragweed [3, 19]: 100
- Plant response rating, Ragweed [3, 20]: 100
- Plant response rating, Bindweed, Field [4, 11]: 95
- Plant response rating, Bindweed, Field [4, 12]: 95
- Plant response rating, Bindweed, Field [4, 13]: 90
- Plant response rating, Bindweed, Field [4, 14]: 95
- Plant response rating, Bindweed, Field [4, 15]: 95
- Plant response rating, Bindweed, Field [4, 16]: 95
- Plant response rating, Bindweed, Field [4, 17]: 100
- Plant response rating, Bindweed, Field [4, 18]: 100
- Plant response rating, Bindweed, Field [4, 20]: 100
- Plant response rating, Bindweed, Field [4, 21]: 100
- Plant response rating, Prickly Sida [5, 11]: 90
- Plant response rating, Prickly Sida [5, 12]: 95
- Plant response rating, Prickly Sida [5, 13]: 70
- Plant response rating, Prickly Sida [5, 14]: 70
- Plant response rating, Prickly Sida [5, 15]: 95
- Plant response rating, Prickly Sida [5, 16]: 70
- Plant response rating, Prickly Sida [5, 17]: 100
- Plant response rating, Prickly Sida [5, 18]: 100
- Plant response rating, Prickly Sida [5, 19]: 100
- Plant response rating, Prickly Sida [5, 20]: 100
- Plant response rating, Barnyardgrass [6, 11]: 70
- Plant response rating, Barnyardgrass [6, 12]: 75
- Plant response rating, Barnyardgrass [6, 13]: 60
- Plant response rating, Barnyardgrass [6, 14]: 60
- Plant response rating, Barnyardgrass [6, 15]: 70
- Plant response rating, Barnyardgrass [6, 16]: 0
- Plant response rating, Barnyardgrass [6, 17]: 20
- Plant response rating, Barnyardgrass [6, 18]: 50
- Plant response rating, Barnyardgrass [6, 20]: 70
- Plant response rating, Barnyardgrass [6, 21]: 70
- Plant response rating, Crabgrass, Large [7, 11]: 70
- Plant response rating, Crabgrass, Large [7, 12]: 70
- Plant response rating, Crabgrass, Large [7, 13]: 50
- Plant response rating, Crabgrass, Large [7, 14]: 60
- Plant response rating, Crabgrass, Large [7, 15]: 70
- Plant response rating, Crabgrass, Large [7, 16]: 20
- Plant response rating, Crabgrass, Large [7, 17]: 30
- Plant response rating, Crabgrass, Large [7, 18]: 90
- Plant response rating, Crabgrass, Large [7, 20]: 90
- Plant response rating, Crabgrass, Large [7, 21]: 90
- Plant response rating, Guineagrass [8, 11]: 95
- Plant response rating, Guineagrass [8, 12]: 95
- Plant response rating, Guineagrass [8, 13]: 60
- Plant response rating, Guineagrass [8, 14]: 70
- Plant response rating, Guineagrass [8, 16]: 70
- Plant response rating, Guineagrass [8, 17]: 70
- Plant response rating, Guineagrass [8, 18]: 85
- Plant response rating, Guineagrass [8, 20]: 100
- Plant response rating, Guineagrass [8, 21]: 100
- Plant response rating, Spiderwort [9, 11]: 95
- Plant response rating, Spiderwort [9, 12]: 95
- Plant response rating, Spiderwort [9, 13]: 95
- Plant response rating, Spiderwort [9, 14]: 95
- Plant response rating, Spiderwort [9, 15]: 95
- Plant response rating, Spiderwort [9, 16]: 70
- Plant response rating, Spiderwort [9, 17]: 100
- Plant response rating, Spiderwort [9, 18]: 100
- Plant response rating, Spiderwort [9, 19]: 100
- Plant response rating, Spiderwort [9, 20]: 100
- Plant response rating, Goosegrass [10, 11]: 60
- Plant response rating, Goosegrass [10, 12]: 60
- Plant response rating, Goosegrass [10, 13]: 20
- Plant response rating, Goosegrass [10, 14]: 60
- Plant response rating, Goosegrass [10, 15]: 60
- Plant response rating, Goosegrass [10, 16]: 0
- Plant response rating, Goosegrass [10, 18]: 50
- Plant response rating, Goosegrass [10, 20]: 50
- Plant response rating, Goosegrass [10, 21]: 50

Structure (SMILES): COC(=O)c1nc(C2CC2)nc(N)c1Cl [Compound 9, methyl 6-amino-5-chloro-2-cyclopropyl-4-pyrimidinecarboxylate]
- Plant response rating, Signalgrass [1, 16]: 20
- Plant response rating, Signalgrass [1, 17]: 80
- Plant response rating, Signalgrass [1, 18]: 80
- Plant response rating, Signalgrass [1, 20]: 100
- Plant response rating, Bromegrass, Downy [2, 16]: 10
- Plant response rating, Bromegrass, Downy [2, 17]: 50
- Plant response rating, Bromegrass, Downy [2, 18]: 70
- Plant response rating, Bromegrass, Downy [2, 20]: 100
- Plant response rating, Ragweed [3, 16]: 95
- Plant response rating, Ragweed [3, 17]: 100
- Plant response rating, Ragweed [3, 18]: 100
- Plant response rating, Ragweed [3, 20]: 100
- Plant response rating, Bindweed, Field [4, 16]: 95
- Plant response rating, Bindweed, Field [4, 17]: 100
- Plant response rating, Bindweed, Field [4, 18]: 100
- Plant response rating, Bindweed, Field [4, 20]: 100
- Plant response rating, Prickly Sida [5, 16]: 95
- Plant response rating, Prickly Sida [5, 17]: 100
- Plant response rating, Prickly Sida [5, 18]: 100
- Plant response rating, Prickly Sida [5, 20]: 100
- Plant response rating, Barnyardgrass [6, 16]: 30
- Plant response rating, Barnyardgrass [6, 17]: 70
- Plant response rating, Barnyardgrass [6, 18]: 85
- Plant response rating, Barnyardgrass [6, 20]: 95
- Plant response rating, Crabgrass, Large [7, 16]: 70
- Plant response rating, Crabgrass, Large [7, 17]: 90
- Plant response rating, Crabgrass, Large [7, 18]: 90
- Plant response rating, Crabgrass, Large [7, 20]: 100
- Plant response rating, Guineagrass [8, 16]: 90
- Plant response rating, Guineagrass [8, 17]: 100
- Plant response rating, Guineagrass [8, 18]: 100
- Plant response rating, Guineagrass [8, 20]: 100
- Plant response rating, Spiderwort [9, 16]: 100
- Plant response rating, Spiderwort [9, 17]: 100
- Plant response rating, Spiderwort [9, 18]: 100
- Plant response rating, Spiderwort [9, 20]: 100
- Plant response rating, Goosegrass [10, 16]: 10
- Plant response rating, Goosegrass [10, 17]: 60
- Plant response rating, Goosegrass [10, 18]: 95
- Plant response rating, Goosegrass [10, 20]: 95
